The record followed here is ChEMBL document CHEMBL1201862, “PubChem BioAssay data set” (2004).

Among the test systems are SK-MEL-5; MCF7; SK-OV-3; T47D; HL-60; IGROV-1; RXF 393; TK-10; NCI-H460; PC-3; SK-MEL-28; KM12; ACHN; CAKI-1; UACC-62; OVCAR-4; HCT-15; OVCAR-3; SF-539; HCC 2998.
Test in all cases: NCI-60 cell line screen, 48 h

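How tested: cells in 96-well plates exposed to compound for 48 hours at five concentrations. Here, GI50 denotes the concentration required for 50% inhibition of growth.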 The source made the active and inactive calls. Rule as the data show it: active = GI50 up to about 1.1 µM and inactive = higher.

As to `O=[N+]([O-])c1nccn1CCCNCCCn1ccnc1[N+](=O)[O-]`, the GI50 with SK-MEL-5, in the test on MCF7, with SK-OV-3, in the test with T47D, in the test on HL-60 and with IGROV-1 was > 100 µM (inactive) throughout. Moreover, the GI50 in the test with RXF 393, with TK-10, in the test on NCI-H460, with PC-3, in the test on SK-MEL-28 and in the test on KM12 was > 100 µM (inactive) in each case. Besides, the GI50 in the test with ACHN was > 100 µM (inactive); with CAKI-1, > 100 µM (inactive); in the test on UACC-62, > 100 µM (inactive); with OVCAR-4 it was > 100 µM (inactive); with HCT-15, above 100 µM; in the test with OVCAR-3 it was > 100 µM (inactive). Also, the GI50 in the test with SF-539 was > 100 µM (inactive).
Turning to `C/C=C\C(CC(=O)NCCc1c[nH]c2ccccc12)CC(=O)OC` (centres undefined), the GI50 in the test with SK-MEL-5, with MCF7, in the test on SK-OV-3, in the test with T47D, in the test with IGROV-1 and with RXF 393 was > 100 µM (inactive) in each case. Besides, the GI50 in the test on TK-10, in the test on NCI-H460, in the test on HCC 2998, in the test on PC-3, in the test with SK-MEL-28 and in the test with KM12 was > 100 µM (inactive) throughout. For the same compound, the GI50 is > 100 µM (inactive) with ACHN; > 100 µM (inactive) in the test with CAKI-1; > 100 µM (inactive) with UACC-62; > 100 µM (inactive) with OVCAR-4; above 100 µM in the test with HCT-15; > 100 µM (inactive) in the test with OVCAR-3.
In the case of `Clc1nc(Cl)c(-c2ccccc2)c(Cl)n1`, the GI50 with SK-MEL-5 was 3.18 µM (inactive); in the test with MCF7, 3.04 µM (inactive); with SK-OV-3, 11.2 µM (inactive); in the test with T47D it was 2.59 µM (inactive); with HL-60, 2.15 µM (inactive); in the test with IGROV-1, 4.92 µM (inactive). The GI50 is 2.18 µM (inactive) in the test on RXF 393; 10.1 µM (inactive) with TK-10; 13.4 µM (inactive) in the test on NCI-H460; 5.96 µM (inactive) in the test on SK-MEL-28; 4.68 µM (inactive) in the test with KM12; 0.29 µM (active) in the test with ACHN. The GI50 with CAKI-1 was 1.87 µM (inactive); in the test on UACC-62, 3.09 µM (inactive); with OVCAR-4, 2.51 µM (inactive); with HCT-15, 2.42 µM; in the test on OVCAR-3 it was 3.57 µM (inactive); in the test on SF-539, 5.42 µM (inactive).
For `CCc1c2c([nH]c(=S)c1C#N)CCC2`, the GI50 in the test with SK-MEL-5, in the test with MCF7, in the test on SK-OV-3, in the test with HL-60, with IGROV-1 and in the test with RXF 393 was > 100 µM (inactive) in each case. Also, the GI50 in the test on TK-10, in the test on NCI-H460, in the test on HCC 2998, in the test on PC-3, in the test on SK-MEL-28 and in the test with KM12 was > 100 µM (inactive) in each case. For the same compound, the GI50 in the test with ACHN was > 100 µM (inactive); in the test with CAKI-1, > 100 µM (inactive); in the test on UACC-62, > 100 µM (inactive); with OVCAR-4, > 100 µM (inactive); with HCT-15, above 100 µM; in the test on OVCAR-3, > 100 µM (inactive).
As to `COc1cccc(/C=C/c2cnc3ccccc3n2)c1OC`, the GI50 is 17.1 µM (inactive) with SK-MEL-5; 25.9 µM (inactive) with MCF7; 71.6 µM (inactive) in the test with SK-OV-3; 23.2 µM (inactive) in the test on T47D; 34.4 µM (inactive) in the test on HL-60; 39.1 µM (inactive) with IGROV-1. The GI50 is 21.8 µM (inactive) in the test on RXF 393; 50.5 µM (inactive) with TK-10; 24.8 µM (inactive) in the test with NCI-H460; 25.1 µM (inactive) in the test with PC-3; 44.2 µM (inactive) with SK-MEL-28; 30.8 µM (inactive) in the test on KM12. The GI50 is 50.1 µM (inactive) in the test on ACHN; 45.2 µM (inactive) with CAKI-1; 28.4 µM (inactive) in the test with UACC-62; 25.6 µM (inactive) with OVCAR-4; 27.5 µM in the test with HCT-15; 37.2 µM (inactive) in the test with OVCAR-3. In the test on SF-539, the GI50 is 45.7 µM (inactive).
On to `O=C1CN(c2ccccc2)C(=O)CN1NCNN1CC(=O)N(c2ccccc2)CC1=O`, for which the GI50 in the test with SK-MEL-5, with MCF7, in the test with SK-OV-3, in the test on HL-60, in the test on IGROV-1 and with RXF 393 was > 100 µM (inactive) in each case. Also, the GI50 in the test on TK-10, with NCI-H460, in the test with HCC 2998, in the test on PC-3, with SK-MEL-28 and with KM12 was > 100 µM (inactive) throughout. Also, the GI50 is > 100 µM (inactive) in the test on ACHN; > 100 µM (inactive) in the test with CAKI-1; > 100 µM (inactive) with UACC-62; > 100 µM (inactive) in the test with OVCAR-4; above 100 µM in the test with HCT-15; > 100 µM (inactive) in the test with OVCAR-3. The GI50 in the test on SF-539 was > 100 µM (inactive).
For the compound `CC(C)(C)c1cc(Br)c(O)c(CN(Cc2cc(C(C)(C)C)cc(Br)c2O)C2CCCCC2)c1`, the GI50 in the test on SK-MEL-5 is 10.9 µM (inactive); with MCF7, 13.9 µM (inactive); in the test with SK-OV-3 it was 15.8 µM (inactive); in the test with T47D, 9.68 µM (inactive); with HL-60, 17.6 µM (inactive); in the test on IGROV-1 it was 15.3 µM (inactive). In addition, the GI50 in the test with RXF 393 is 10.7 µM (inactive); in the test on TK-10, 15.8 µM (inactive); in the test on PC-3 it was 14.9 µM (inactive); in the test on SK-MEL-28 it was 15.5 µM (inactive); in the test with KM12 it was 14.7 µM (inactive); in the test with ACHN, 14.9 µM (inactive). Moreover, the GI50 in the test on CAKI-1 was 12.3 µM (inactive); with UACC-62, 12.7 µM (inactive); with OVCAR-4 it was 10.5 µM (inactive); in the test with HCT-15, 12.8 µM; with OVCAR-3, 11.9 µM (inactive).
Consider `CC(=O)Oc1ccc(/C=C/C(=O)O[C@@H](C(=O)O)[C@@H](OC(=O)/C=C/c2ccc(OC(C)=O)c(OC(C)=O)c2)C(=O)O)cc1OC(C)=O`, for which the GI50 in the test with SK-MEL-5, in the test on MCF7, with SK-OV-3, with T47D, with IGROV-1 and in the test with RXF 393 was > 100 µM (inactive) each time. The GI50 in the test with TK-10, in the test on NCI-H460, in the test with HCC 2998, with PC-3, with SK-MEL-28 and in the test on KM12 was > 100 µM (inactive) throughout. In addition, the GI50 in the test with ACHN was > 100 µM (inactive); in the test with CAKI-1, > 100 µM (inactive); in the test on UACC-62, > 100 µM (inactive); with OVCAR-4 it was > 100 µM (inactive); in the test on HCT-15, above 100 µM; in the test with OVCAR-3, > 100 µM (inactive).
With `CCN1CN(c2ccccc2)C2(CCN(CC3COc4ccccc4O3)CC2)C1=O` (centres undefined), the GI50 was 18.2 µM (inactive) in the test on SK-MEL-5; 26.1 µM (inactive) in the test on MCF7; 28.6 µM (inactive) with SK-OV-3; 24.3 µM (inactive) in the test on T47D; 16.1 µM (inactive) with HL-60; 53.7 µM (inactive) in the test with IGROV-1. In addition, the GI50 in the test with RXF 393 is 15.5 µM (inactive); with TK-10 it was 25.8 µM (inactive); with NCI-H460, 18.2 µM (inactive); in the test with PC-3 it was 25.3 µM (inactive); with SK-MEL-28, 32.5 µM (inactive); with KM12, 17.5 µM (inactive). Further, the GI50 in the test with ACHN was 23.1 µM (inactive); with CAKI-1 it was 43 µM (inactive); in the test with UACC-62, 23.3 µM (inactive); in the test with HCT-15, 20.5 µM; in the test on OVCAR-3, 31.2 µM (inactive); with SF-539, 18.6 µM (inactive).
With `COc1nc2c(c(=O)[nH]1)N=C(c1ccc([N+](=O)[O-])cc1)CC(c1ccccc1)N2` (centres undefined), the GI50 with SK-MEL-5 was 49.7 µM (inactive); in the test on MCF7, 57.7 µM (inactive); in the test with HL-60 it was 16 µM (inactive); with IGROV-1 it was > 100 µM (inactive); with RXF 393, 94.6 µM (inactive); in the test on NCI-H460, 73.6 µM (inactive). The GI50 is > 100 µM (inactive) in the test on HCC 2998; 84.3 µM (inactive) with PC-3; 94.8 µM (inactive) with SK-MEL-28; 70.5 µM (inactive) in the test on KM12; 76.4 µM (inactive) in the test on ACHN; > 100 µM (inactive) in the test on CAKI-1. The GI50 was 59.2 µM (inactive) with UACC-62, 62.8 µM (inactive) in the test with OVCAR-4, > 100 µM (inactive) in the test on OVCAR-3 and > 100 µM (inactive) with SF-539.
As to `N#CCC1(c2ccc(Cl)cc2)NC(=O)c2ccccc21` (centres undefined), the GI50 in the test on SK-MEL-5, with MCF7, in the test with SK-OV-3, in the test with T47D, with HL-60 and in the test on IGROV-1 was > 100 µM (inactive) in each case. Further, the GI50 in the test on RXF 393 was > 100 µM (inactive); in the test on TK-10, 96.2 µM (inactive); in the test with NCI-H460, > 100 µM (inactive); with PC-3, > 100 µM (inactive); with SK-MEL-28, > 100 µM (inactive); with KM12, > 100 µM (inactive). Also, the GI50 in the test with ACHN was > 100 µM (inactive); with CAKI-1, > 100 µM (inactive); with UACC-62, > 100 µM (inactive); with OVCAR-4, > 100 µM (inactive); in the test with HCT-15 it was above 100 µM; with OVCAR-3 it was > 100 µM (inactive). For the same compound, in the test on SF-539, the GI50 was > 100 µM (inactive).
